{"source": "patent US20240400572A1", "about": "“COMPOUNDS AND METHODS FOR TREATING CANCERS THAT ARE MGMT DEFICIENT REGARDLESS OF MMR STATUS” (Yale University, priority 2021, published 2024)", "key": {"[1]": {"test_system": "DLD1 BRCA2+/− and BRCA2−/− cells", "experiment": "Short-term cell viability assay in DLD1 isogenic model", "format": "cell-based, human", "procedure": "(§1) FIGS. Z4A-Z4I. KL-50 (4a) activates DNA damage response pathways and cycle arrest in MGMT− cells, independent of MMR, and induces sensitivity in cells deficient in ICL or HR repair. (FIGS. Z4A, Z4B, and Z4C) Phospho-SER139-H2AX (γH2AX) (A), 53BP1 (FIG. Z4B), and phospo-SER33-RPA2 (pRPA) (FIG. Z4C) foci formation quantified by % cells with 10 foci in LN229 MGMT+/−, MMR+/− cells treated with 0.1% DMSO control, 20 μM KL-50 (4a), or 20 μM TMZ (1a) for 48 h. Columns, mean; error bars, SD; n≥5 technical replicates. Additional time course data is presented in FIG. ZS6B to D. (FIG. Z4D) Representative foci images of data in (FIG. Z4A) to (FIG. Z4C). (FIG. Z4E) Percentage of cells in G1, S, and G2 cell cycle phases after treatment as in (A) to (C), measured using integrated nuclear (Hoechst) staining intensity. Columns, mean; error bars, SD; n=3 independent analyses. (FIG. Z4F) Change in percent cells with 1 micronuclei from baseline (DMSO control) after treatment as in (FIG. Z4A) to (FIG. Z4C). Columns, mean; error bars, SD; […] technical replicates; **** p<0.0001; ns, not significant. Additional validation is presented in FIG. ZS9, A and B. (FIG. Z4G) Short-term viability assay curves for KL-50 (4a) in PD20 cells, deficient in FANCD2 (FANCD2−/−) or complemented with FANCD2 (+FANCD2). (FIG. Z4H) Short-term viability assay curves for KL-50 (4a) in PEO4 (BRCA2+) and PEO1 (BRCA2−/−) cells pre-treated with 0.01% DMSO control or 10 μM O^6BG (+O^6BG) for 1 h prior to KL-50 (4a) addition. (FIG. Z4I) Short-term viability assay curves for KL-50 (4a) in DLD1 BRCA2+/− and BRCA2−/− cells pre-treated with 0.01% DMSO control or 10 μM O^6BG (+O^6BG) for 1 h prior to KL-50 (4a) addition. For (FIG. Z4G), (FIG. Z4H), and (FIG. Z4I), points, mean; error bars, SD; n=3 technical replicates.\n(§2) Short-term Cell Viability Assay. Cells were seeded in 96-well plates at 1000 or 2000 cells/well and allowed to adhere at 23° C. for 60 min and then incubated overnight at 37° C. Cells were treated with indicated concentrations of compounds in triplicate for 4-6 days prior to fixation with 3.7% paraformaldehyde and nuclear staining with 1 μg/mL Hoechst 33342 dye. Cells were imaged on a Cytation 3 imaging reader (BioTek) and quantified using CellProfiler software."}, "[2]": {"test_system": "linearized pUC19 plasmid DNA", "experiment": "Melting temperature assay", "format": "biochemical", "conditions": "100 or 500 μM for 3 h", "procedure": "Melting Temperature Assay. Linearized pUC19 DNA (750 ng), prepared as described above, was incubated with the indicated concentration of either MMS or KL-50 (4a) adjusted in a final volume of 18 μL in 100 mM Tris buffer (pH 7.4) for 3 h. Drug stock concentrations were made in DMSO such that each reaction contained a fixed 5% DMSO concentration. Afterwards, 1 μL each of 20× SYBR Green dye (Invitrogen) and 20× ROX reference dye (Invitrogen) was added and melting temperature analysis was run on a StepOnePlus RT PCR System (Applied Biosciences) to generate melting temperature curves."}, "[3]": {"test_system": "WT and XPA-deficient MEFs", "experiment": "Short-term cell viability assay in NER isogenic MEFs", "format": "cell-based, mouse", "conditions": "WT versus XPA-deficient MEFs, ± MGMT depletion with O6BG", "procedure": "(§3) FIGS. ZS5A-ZS5D. […] Columns, mean; error bars, SD; n=2 independent analyses. For (FIG. ZS5A) and (FIG. ZS5C), points, mean; error bars, SD; n=3 technical replicates.\nas §2"}, "[4]": {"test_system": "PEO4 (BRCA2+) and PEO1 (BRCA2−/−) cells", "experiment": "Short-term cell viability assay in PEO1/4 model", "format": "cell-based, human", "procedure": "as §1, §2"}, "[5]": {"test_system": "PD20 cells, FANCD2−/− or +FANCD2", "experiment": "Short-term cell viability assay in FANCD2 model", "format": "cell-based, human", "conditions": "PD20 FANCD2−/− versus +FANCD2", "procedure": "as §1\nShort-term Cell Viability Assay. Cells were seeded in 96-well plates at 1000 or 2000 cells/well and allowed to adhere at 23° C. for 60 min and then incubated overnight at 37° C. […] Cells were imaged on a Cytation 3 imaging reader (BioTek) and quantified using CellProfiler software."}, "[6]": {"test_system": "LN229 MGMT+/−, MMR+/− isogenic lines", "experiment": "Short-term cell viability assay with ROS scavenger NAC", "format": "cell-based, human", "conditions": "pre-treated with increasing concentrations of NAC", "procedure": "as §3, §2"}}}
{"smiles": "NC(=O)c1ncn2c(=O)n(CCF)nnc12", "note": "[KL-50, 3-(2-fluoroethyl)-4-oxo-3H,4H-imidazo[4,3-d][1,2,3,5]tetrazine-8-carboxamide]", "values": [{"measurement": "sensitivity of BRCA2-deficient cells (in words)", "setting": "[1]; DLD1 BRCA2−/− versus BRCA2+/−, ± 10 μM O^6BG", "result": "BRCA2 loss enhanced the toxicity"}, {"measurement": "therapeutic index (TI)", "setting": "[1]; ratio of IC50 values in MGMT+/BRCA2+ cells compared to MGMT−/BRCA2− cells", "result": "~600", "unit": "fold"}, {"measurement": "change in DNA melting temperature (in words)", "setting": "[2]", "result": "comparable changes in measured DNA melting temperature"}, {"measurement": "sensitivity of XPA deficient cells (in words)", "setting": "[3]", "result": "absence of additional sensitivity"}, {"measurement": "therapeutic index (TI)", "setting": "[4]; PEO1/4 model, ratio of IC50 values", "result": 62, "unit": "fold"}, {"measurement": "sensitivity of BRCA2-deficient cells (in words)", "setting": "[4]; PEO1 versus PEO4, ± 10 μM O^6BG", "result": "BRCA2 loss enhanced the toxicity"}, {"measurement": "sensitivity of FANCD2-deficient cells (in words)", "setting": "[5]", "result": "hypersensitive"}, {"measurement": "rescue of toxicity by NAC (in words)", "setting": "[6]", "result": "did not result in rescue"}]}
